Laboratory results as given in patent publication US4666931A, “Benzofuran derivatives useful in treating diabetic complications” (Kaken Pharmaceutical Co., Ltd., priority 1984, dated 1987).
Where two headings read alike, the source gives them in different places. Blank lines part the entries; values can stand above or below the compound they belong to.

How the values were obtained:
[1] = test system: aggregation of the washed rabbit platelet by thrombin; assay: Platelet aggregation inhibiting activity (washed rabbit platelet, thrombin); assay type: cell-based; conditions: for IC50: Oryctolagus cuniculus, Platelet; for platelet aggregation inhibiting activity relative to Persantin: compared with Persantin (dipyridamole)
Protocol: Blood samples were collected from the auricular blood vessel of rabbits (white local breed), and washed platelets were prepared therefrom by the method of Baenziger et al. (N. L. Baenziger and P. W. Majerus, Methods Enzymol., 31, 149 to 155 (1974). The platelets were suspended in a 15 mM Tris-hydrochloric acid buffer with a final concentration of 6×10^8 cells/ml (Tris: tris(hydroxymethyl)aminomethane). Each test compound of the compound Nos. 5, 8, 9, 11, 23, 29, 30 and 33 and Persantin® was added thereto and incubation was carried out at 37° C. for 2 minutes. Then the platelets were stimulated by addition of thrombin (0.2 unit/ml of final concentration; made by Mochida Pharmaceutical Co.) and the aggregation inhibiting activity was estimated by the observation of the aggregation reaction using an aggregometer (made by Briston Co.).
The results are shown in Table 3 in terms of IC50 (50% inhibiton concentration in M).

[2] = molecular target: T1, aldose reductase from rat lens (Rattus norvegicus, UniProt P07943); assay: Aldose reductase inhibiting activity; assay type: biochemical; conditions: DL-glyceraldehyde substrate, Table 2, read-out: IC50 (50% inhibition concentration in M)
T1 construct: the supernatant was prepared as the crude enzyme solution; from tissue; host or cells: lens of male Wistar rats, 10,000 g supernatant of homogenate (crude enzyme)
Protocol: Wistar male rats were sacrificed by decapitation and the lenses were taken out to be homogenized with a 0.1M phosphate buffer [pH 6.8, containing 1 mM of mercaptoethanol and 1 mM of nicotinamide-adenine dinucleotide phosphate (NADP)]. The homogenate was then centrifuged at 10,000 g for 15 minutes and the supernatant was prepared as the crude enzyme solution.

cyclooxygenase = assay: Cyclooxygenase inhibition: malondialdehyde production from arachidonic acid, 9000 G supernatant of lung homogenate from guinea pig; assay type: biochemical; conditions: guinea pig lung 9000 G supernatant, compared with aspirin
Protocol: Lung from guinea pig was washed with physiological saline and homogenized in 0.1M Tris-hydrochloric acid buffer to prepare a supernatant by cooled centrifugation (9000 G).
The inhibiting activity against cyclooxygenase was measured by using the 9000 G supernatant as a source of cyclooxygenase in the presence of 1 mM epinephiline.

[3] = test system: production of malondialdehyde from arachidonic acid by rabbit platelets; assay: Arachidonic acid metabolism inhibiting activity: production of malondialdehyde from arachidonic acid by rabbit platelets; assay type: cell-based; conditions: Oryctolagus cuniculus, Platelet, arachidonic acid 0.2 mM, read-out: concentration showing 50% inhibition against the production of malondialdehyde from arachidonic acid
Protocol: Washed rabbit platelets prepared as in the platelet aggregation inhibiting activity test were suspended in 15 mM Tris-hydrochloric acid buffer with a final concentration of 1×10^8 cell/ml, to which each test compound of the compound Nos. 8, 13, 14, 19, 20, 23, 29, 30 and 33 were added and the resultant was preincubated at 37° C. for five minutes. Then arachidonic acid (a final concentration: 0.2 mM, made by Sigma Chemical Co.) was added thereto and the mixture was preincubated for 1 minute. An amount of the produced malondialdehyde was measured according to the thiobarbiturates method (Ed. Aoki and Shibata, Ketsuekigaku Kenkyukensaho, P 441 to 447).

[4] = range for nine compounds, read-out: concentration showing 50% inhibition against the aggregation of the washed rabbit platelet by thrombin
[5] = washed rabbit platelets, thrombin 0.2 unit/ml, 37° C., Table 3, read-out: IC50 (50% inhibition concentration in M)

Structure (SMILES): CCCCOc1ccc(S(=O)(=O)N(C)C(C)C(=O)O)c2cc(C(C)=O)oc12 (stereo not shown) [Compound 10, 2-acetyl-4-(N-methyl-N-(1-carboxyethyl)sulfamoyl)-7-n-butoxybenzofuran]
IC50 [1, 4]: 20000 to 200000 nM
IC50 [1, 5]: 160000 nM
platelet aggregation inhibiting activity relative to Persantin [1]: equivalent to or more than
IC50 [2]: 7000 nM

Structure (SMILES): COc1c(S(=O)(=O)NCC(=O)O)cc(S(=O)(=O)NCC(=O)O)c2cc(C3(C)NC(=O)NC3=O)oc12 (stereo not shown) [Compound 20, 2-(4-methyl-2,5-dioxoimidazolidine-4-yl)-4,6-di(N-carboxymethylsulfamoyl)-7-methoxybenzofuran]
inhibition against malondialdehyde production relative to aspirin (cyclooxygenase): equivalent to or more than
IC50 [2]: 300 nM
IC50 [3]: 10000 to 100000 nM

Structure (SMILES): CC(=O)c1cc2c(S(=O)(=O)N(CC(=O)O)Cc3ccccc3)ccc(OCc3ccccc3)c2o1 [Compound 35, 2-acetyl-4-(N-benzyl-N-carboxymethylsulfamoyl)-7-benzyloxybenzofuran]
IC50 [2]: 700 nM

Structure (SMILES): C=CCCOc1ccc(S(=O)(=O)NCC(=O)O)c2cc(C(C)=O)oc12 [Compound 32, 2-acetyl-4-(N-carboxymethylsulfamoyl)-7-(3-butenyloxy)benzofuran]
IC50 [2]: 30 nM

Structure (SMILES): CC(=O)c1cc2c(S(=O)(=O)NCC(=O)O)c3c(cc2o1)OCO3 [Compound 17, 2-acetyl-4-(N-carboxymethylsulfamoyl)-5,6-methylenedioxybenzofuran]
IC50 [2]: 2000 nM

Structure (SMILES): CC(=O)c1cc2c(S(=O)(=O)NCC(=O)O)ccc(OCc3ccc(Cl)cc3)c2o1 [Compound 30, 2-acetyl-4-(N-carboxymethylsulfamoyl)-7-p-chlorobenzyloxybenzofuran]
IC50 [1, 4]: 20000 to 200000 nM
IC50 [1, 5]: 30000 nM
platelet aggregation inhibiting activity relative to Persantin [1]: equivalent to or more than
inhibition against malondialdehyde production relative to aspirin (cyclooxygenase): equivalent to or more than
IC50 [2]: 40 nM
IC50 [3]: 10000 to 100000 nM

Structure (SMILES): COc1ccc(S(=O)(=O)NCC(=O)O)c2cc(C(=O)O)oc12 [Compound 13, 2-carboxy-4-(N-carboxymethylsulfamoyl)-7-methoxybenzofuran]
inhibition against malondialdehyde production relative to aspirin (cyclooxygenase): equivalent to or more than
IC50 [2]: 100 nM
IC50 [3]: 10000 to 100000 nM

Structure (SMILES): CCc1oc2ccc(NC(C)=O)cc2c1S(=O)(=O)NCC(=O)O [Compound 22, 2-ethyl-3-(N-carboxymethylsulfamoyl)-5-acetylaminobenzofuran]
IC50 [2]: 50 nM

Structure (SMILES): COc1ccc(COc2ccc(S(=O)(=O)N(CC(=O)O)Cc3ccc(OC)cc3)c3cc(C(C)=O)oc23)cc1 [Compound 33, 2-acetyl-4-(N-p-methoxybenzyl-N-carboxymethylsulfamoyl)-7-p-methoxybenzyloxybenzofuran]
IC50 [1, 4]: 20000 to 200000 nM
IC50 [1, 5]: 20000 nM
platelet aggregation inhibiting activity relative to Persantin [1]: equivalent to or more than
inhibition against malondialdehyde production relative to aspirin (cyclooxygenase): equivalent to or more than
IC50 [2]: 800 nM
IC50 [3]: 10000 to 100000 nM

Structure (SMILES): CCC(C)c1ccc(S(=O)(=O)NCC(=O)O)c2cc(C(C)=O)oc12 (stereo not shown) [Compound 16, 2-acetyl-4-(N-carboxymethylsulfamoyl)-7-sec-butylbenzofuran]
IC50 [2]: 400 nM

Structure (SMILES): CCOc1ccc(S(=O)(=O)NCC(=O)O)c2cc(C(=O)O)oc12 [Compound 14, 2-carboxy-4-(N-carboxymethylsulfamoyl)-7-ethoxybenzofuran]
inhibition against malondialdehyde production relative to aspirin (cyclooxygenase): equivalent to or more than
IC50 [2]: 70 nM
IC50 [3]: 10000 to 100000 nM

Structure (SMILES): COc1ccc(COc2ccc(S(=O)(=O)NCC(=O)O)c3cc(C(C)=O)oc23)cc1 [Compound 24, 2-acetyl-4-(N-carboxymethylsulfamoyl)-7-p-methoxybenzyloxybenzofuran]
IC50 [2]: 30 nM

Structure (SMILES): CCCCCCOc1ccc(S(=O)(=O)NCC(=O)O)c2cc(C(C)=O)oc12 [Compound 6, 2-acetyl-4-(N-carboxymethylsulfamoyl)-7-n-hexyloxybenzofuran]
IC50 [2]: 50 nM

Structure (SMILES): CCCCCCCOc1ccc(S(=O)(=O)NCC(=O)O)c2cc(C(C)=O)oc12 [Compound 7, 2-acetyl-4-(N-carboxymethylsulfamoyl)-7-n-heptyloxybenzofuran]
IC50 [1, 5]: 150000 nM
IC50 [2]: 30 nM

Structure (SMILES): CCCCOc1ccc(S(=O)(=O)NC(C)C(=O)O)c2cc(C(C)=O)oc12 (stereo not shown) [Compound 11, 2-acetyl-4-(N-(1-carboxyethyl)sulfamoyl)-7-n-butoxybenzofuran]
IC50 [1, 4]: 20000 to 200000 nM
IC50 [1, 5]: 160000 nM
platelet aggregation inhibiting activity relative to Persantin [1]: equivalent to or more than
IC50 [2]: 5000 nM

Structure (SMILES): COc1ccc(S(=O)(=O)NCC(=O)O)c2cc(C3(C)NC(=O)NC3=O)oc12 (stereo not shown) [Compound 19, 2-(4-methyl-2,5-dioxoimidazolidine-4-yl)-4-(N-carboxymethylsulfamoyl)-7-methoxybenzofuran]
inhibition against malondialdehyde production relative to aspirin (cyclooxygenase): equivalent to or more than
IC50 [2]: 2000 nM
IC50 [3]: 10000 to 100000 nM

Structure (SMILES): CC(=O)c1cc2c(S(=O)(=O)NCC(=O)O)ccc(OCC(C)Cl)c2o1 (stereo not shown) [Compound 25, 2-acetyl-4-(N-carboxymethylsulfamoyl)-7-(2-chloropropyloxy)benzofuran]
IC50 [2]: 200 nM

Structure (SMILES): O=C(O)CNS(=O)(=O)c1ccc(OCC(=O)O)c2oc(C(=O)O)cc12 [Compound 12, 2-carboxy-4-(N-carboxymethylsulfamoyl)-7-(carboxymethoxy)benzofuran]
IC50 [2]: 200 nM

Structure (SMILES): CCCCOc1ccc(S(=O)(=O)NCC(=O)O)c2cc(C(C)=O)oc12 [Compound 4, 2-acetyl-4-(N-carboxymethylsulfamoyl)-7-n-butoxybenzofuran]
IC50 [2]: 40 nM

Structure (SMILES): OCCN(CCO)c1nc(N2CCCCC2)c2nc(N(CCO)CCO)nc(N3CCCCC3)c2n1 [Persantin ®, dipyridamole, reference compound]
IC50 [1, 5]: 200000 nM

Second part, led by results:

IC50 [2]: 100 nM
Structure (SMILES): CC(=O)c1cc2c(S(=O)(=O)NCC(=O)O)ccc(OCC#N)c2o1 [Compound 27, 2-acetyl-4-(N-carboxymethylsulfamoyl)-7-cyanomethyloxybenzofuran]

IC50 [2]: 80 nM
Structure (SMILES): CC(=O)c1cc2c(S(=O)(=O)NCC(=O)O)ccc(O)c2o1 [Compound 28, 2-acetyl-4-(N-carboxymethylsulfamoyl)-7-hydroxybenzofuran]

IC50 [1, 4]: 20000 to 200000 nM
IC50 [1, 5]: 130000 nM
inhibition against malondialdehyde production relative to aspirin (cyclooxygenase): equivalent to or more than
IC50 [2]: 200 nM
IC50 [3]: 10000 to 100000 nM
Structure (SMILES): CC(=O)c1cc2c(S(=O)(=O)NCC(=O)O)ccc(OCC(=O)O)c2o1 [Compound 8, 2-acetyl-4-(N-carboxymethylsulfamoyl)-7-(carboxymethoxy)benzofuran]
platelet aggregation inhibiting activity relative to Persantin [1]: equivalent to or more than

IC50 [2]: 5000 nM
Structure (SMILES): COc1ccc(S(=O)(=O)NCC(=O)O)c2oc(C(C)=O)cc12 [Compound 18, 2-acetyl-4-methoxy-7-(N-carboxymethylsulfamoyl)benzofuran]

IC50 [2]: 200 nM
Structure (SMILES): COc1ccc(S(=O)(=O)NCC(=O)O)c2cc(C(C)=O)oc12 [Compound 1, 2-acetyl-4-(N-carboxymethylsulfamoyl)-7-methoxybenzofuran]

IC50 [2]: 50 nM
Structure (SMILES): C=CCOc1ccc(S(=O)(=O)NCC(=O)O)c2cc(C(C)=O)oc12 [Compound 31, 2-acetyl-4-(N-carboxymethylsulfamoyl)-7-allyloxybenzofuran]

IC50 [2]: 500 nM
Structure (SMILES): CC(=O)c1cc2c(S(=O)(=O)NCC(=O)O)ccc(C)c2o1 [Compound 15, 2-acetyl-4-(N-carboxymethylsulfamoyl)-7-methylbenzofuran]

IC50 [2]: 100 nM
Structure (SMILES): CCOc1ccc(S(=O)(=O)NCC(=O)O)c2cc(C(C)=O)oc12 [Compound 2, 2-acetyl-4-(N-carboxymethylsulfamoyl)-7-ethoxybenzofuran]
